Data published in the NIST ThermoML archive (doi:10.1016/j.jct.2005.03.019).

Experiment: xn = mol fraction of the nth substance listed
Conditions: 101 kPa, Liquid, Vibrating tube method

C=Cc1ccccc1 [styrene] + CC1COC(=O)O1
Conditions | mass density [kg/m3]
293.15 K, x1 = 0.0537 | 1180.1
293.15 K, x1 = 0.1389 | 1149.3
293.15 K, x1 = 0.1832 | 1134
293.15 K, x1 = 0.2341 | 1116.8
293.15 K, x1 = 0.294 | 1097.3
293.15 K, x1 = 0.3867 | 1068.4
293.15 K, x1 = 0.4379 | 1053.1
293.15 K, x1 = 0.5089 | 1032.5
293.15 K, x1 = 0.5799 | 1012.6
293.15 K, x1 = 0.6328 | 998.3
293.15 K, x1 = 0.6978 | 981.1
293.15 K, x1 = 0.7534 | 966.7
293.15 K, x1 = 0.8136 | 951.5
293.15 K, x1 = 0.8738 | 936.6
293.15 K, x1 = 0.9348 | 921.7
293.15 K, x1 = 1 | 906
303.15 K, x1 = 0.0613 | 1158.4
303.15 K, x1 = 0.1289 | 1134.8
303.15 K, x1 = 0.1743 | 1119.6
303.15 K, x1 = 0.2389 | 1098.5
303.15 K, x1 = 0.2976 | 1080.1
303.15 K, x1 = 0.3681 | 1058.8
303.15 K, x1 = 0.4178 | 1044.3
303.15 K, x1 = 0.4622 | 1031.7
303.15 K, x1 = 0.5239 | 1014.6
303.15 K, x1 = 0.5919 | 996.3
303.15 K, x1 = 0.6521 | 980.7
303.15 K, x1 = 0.7244 | 962.4
303.15 K, x1 = 0.7932 | 945.4
303.15 K, x1 = 0.8472 | 932.4
303.15 K, x1 = 0.9247 | 914
303.15 K, x1 = 1 | 896.4
313.15 K, x1 = 0.0473 | 1144.7
313.15 K, x1 = 0.1255 | 1118.3
313.15 K, x1 = 0.1922 | 1096.7
313.15 K, x1 = 0.2467 | 1079.7
313.15 K, x1 = 0.2844 | 1068.3
313.15 K, x1 = 0.3388 | 1052.2
313.15 K, x1 = 0.4032 | 1033.8
313.15 K, x1 = 0.4789 | 1013
313.15 K, x1 = 0.5376 | 997.4
313.15 K, x1 = 0.6198 | 976.4
313.15 K, x1 = 0.6638 | 965.4
313.15 K, x1 = 0.7398 | 946.9
313.15 K, x1 = 0.8133 | 929.5
313.15 K, x1 = 0.8756 | 915.1
313.15 K, x1 = 0.9456 | 899.1
313.15 K, x1 = 1 | 886.9
323.15 K, x1 = 0.0598 | 1122.3
323.15 K, x1 = 0.1431 | 1095.3
323.15 K, x1 = 0.1846 | 1082.4
323.15 K, x1 = 0.2572 | 1060.6
323.15 K, x1 = 0.3312 | 1039.2
323.15 K, x1 = 0.3841 | 1024.5
323.15 K, x1 = 0.4423 | 1008.8
323.15 K, x1 = 0.4928 | 995.6
323.15 K, x1 = 0.5634 | 977.7
323.15 K, x1 = 0.6143 | 965.1
323.15 K, x1 = 0.6635 | 953.3
323.15 K, x1 = 0.7187 | 940.3
323.15 K, x1 = 0.7749 | 927.3
323.15 K, x1 = 0.8353 | 913.6
323.15 K, x1 = 0.9244 | 893.8
323.15 K, x1 = 1 | 877.3
333.15 K, x1 = 0.0534 | 1106.6
333.15 K, x1 = 0.113 | 1087.7
333.15 K, x1 = 0.1682 | 1070.9
333.15 K, x1 = 0.2134 | 1057.5
333.15 K, x1 = 0.2843 | 1037.2
333.15 K, x1 = 0.3587 | 1016.8
333.15 K, x1 = 0.4238 | 999.7
333.15 K, x1 = 0.479 | 985.6
333.15 K, x1 = 0.5359 | 971.5
333.15 K, x1 = 0.5831 | 960.1
333.15 K, x1 = 0.6811 | 937.2
333.15 K, x1 = 0.7529 | 920.9
333.15 K, x1 = 0.8243 | 905.2
333.15 K, x1 = 0.8871 | 891.7
333.15 K, x1 = 0.9424 | 879.9
333.15 K, x1 = 1 | 867.8
343.15 K, x1 = 0.0648 | 1085.6
343.15 K, x1 = 0.1198 | 1068.9
343.15 K, x1 = 0.1823 | 1050.6
343.15 K, x1 = 0.2398 | 1034.3
343.15 K, x1 = 0.318 | 1013
343.15 K, x1 = 0.3832 | 996
343.15 K, x1 = 0.4429 | 981
343.15 K, x1 = 0.5138 | 963.8
343.15 K, x1 = 0.5824 | 947.6
343.15 K, x1 = 0.6529 | 931.6
343.15 K, x1 = 0.7039 | 920.3
343.15 K, x1 = 0.7735 | 905.2
343.15 K, x1 = 0.8423 | 890.7
343.15 K, x1 = 0.8814 | 882.5
343.15 K, x1 = 0.9476 | 868.9
343.15 K, x1 = 1 | 858.2
353.15 K, x1 = 0.0621 | 1069.6
353.15 K, x1 = 0.1257 | 1051
353.15 K, x1 = 0.1644 | 1040
353.15 K, x1 = 0.2312 | 1021.6
353.15 K, x1 = 0.3042 | 1002.2
353.15 K, x1 = 0.3718 | 985
353.15 K, x1 = 0.4423 | 967.7
353.15 K, x1 = 0.5021 | 953.5
353.15 K, x1 = 0.5539 | 941.6
353.15 K, x1 = 0.6243 | 925.9
353.15 K, x1 = 0.6912 | 911.4
353.15 K, x1 = 0.752 | 898.5
353.15 K, x1 = 0.8132 | 885.9
353.15 K, x1 = 0.8642 | 875.5
353.15 K, x1 = 0.9248 | 863.4
353.15 K, x1 = 1 | 848.6
